{"source": "patent US20240400712A1", "about": "“A PLATFORM TO OBTAIN MONOCLONAL ANTIBODIES DIRECTED AGAINST PROCESSED TUMOR-SPECIFIC ANTIGENS” (MEDITERRANEA THERANOSTIC SRL, priority 2020, published 2024)", "key": {"[1]": {"system": "metastatic triple-negative breast cancer (TNBC)", "details": "cited from earlier work"}, "[2]": {"biological_target": "T1, ADAM10 (Mus musculus, UniProt O35598)", "T1 construct": "endogenous in cells; host or cells: MTE 4-14 cells (transformed thymus cells) transfected with Trop-2", "T1 sequence (O35598 215-749)": "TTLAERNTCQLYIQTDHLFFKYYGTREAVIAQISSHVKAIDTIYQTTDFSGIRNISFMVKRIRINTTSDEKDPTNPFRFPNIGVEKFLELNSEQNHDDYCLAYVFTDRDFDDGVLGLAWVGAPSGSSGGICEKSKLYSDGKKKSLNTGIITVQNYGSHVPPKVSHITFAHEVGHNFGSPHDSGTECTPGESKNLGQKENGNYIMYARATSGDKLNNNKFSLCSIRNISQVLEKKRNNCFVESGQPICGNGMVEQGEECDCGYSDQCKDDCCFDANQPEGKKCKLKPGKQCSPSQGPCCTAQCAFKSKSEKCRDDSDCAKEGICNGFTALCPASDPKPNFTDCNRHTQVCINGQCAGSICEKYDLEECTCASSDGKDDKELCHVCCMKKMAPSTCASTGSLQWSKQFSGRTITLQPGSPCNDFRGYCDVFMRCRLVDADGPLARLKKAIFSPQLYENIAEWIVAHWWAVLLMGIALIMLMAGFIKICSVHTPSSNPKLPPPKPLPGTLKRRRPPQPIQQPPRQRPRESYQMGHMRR", "experiment": "Western blot of Trop-2 processing after ADAM10 inhibition or silencing in MTE 4-14/Trop-2 transfectants", "assay_type": "cell-based, murine", "details": "for concentration found effective (up to): inhibition of Trop-2 cleavage in cells", "procedure": "ADAM 10 activity was inhibited in the MTE 4-14/Trop-2 transfectants by treatment with chemical inhibitors or mRNA silencing, and the effect on Trop-2 processing and on Trop-2-dependent cell growth was evaluated.\nA. WB analysis following treatment with the broad-spectrum metalloprotease inhibitor GM6001 or with the specific ADAM10 inhibitor G1254023X (Ludwig, Hundhausen et al. 2005) or ADAM10 siRNA silencing, as indicated. […] T2-p: processed Trop-2; na: native form; pr processed form.\nWestern blotting was performed as described (El Sewedy, Fomaro et al. 1998). Tumors from experimental animals were rapidly frozen upon surgical removal and stored at −80° C. Frozen samples were quickly thawed and homogenized with a Dounce homogenizer. Cleared homogenates of tumors and cultured cell lysates were analyzed by SDS-PAGE and transferred to nitrocellulose filters. Filters were hybridized with anti-human Trop-2 (affinity-purified polyclonal rabbit antiserum) or anti-ADAM10 antibodies.\nCells were treated with ADAM10 inhibitors for 24 hours at the minimum concentration found to be effective in inhibiting Trop-2 cleavage, then assayed as indicated. The GM6001 metalloprotease family inhibitor (Calbiochem) was dissolved in DMSO and used at 6.5-13 μM for 24 hours; up to 50 μM GM6001 were found effective. The G1254023X selective ADAM10 inhibitor, dissolved in DMSO, was kindly provided by Dr. A. Ludwig. Cells received two doses (10 μM) every 24 hours for 48 hours; up to 20 μM G1254023X were found effective. Control cells received vehicle alone.\n(§1) Complementary strategies were utilized for siRNA design. Briefly, Tuschl' criteria were applied, i.e. position in the mRNA, GC content, base composition and flanking sequences (Elbashir, Harborth et al. 2001). Invitrogen (maidesigner.invitrogen.com/maiexpress/) provides a proprietary algorithm that performs a statistical analysis of the target sequence, based on sequence composition, nucleotide content and thermodynamic properties, and compares candidates with validated siRNA sequences. The Whitehead Institute web site (jura.wi.mit.edu/bioc/siRNAext/) combines Tuschl' criteria with predictions of binding energies for both sense and antisense siRNAs and with BLAST filtering of cross-hybridizing sequences (Semizarov, Frost et al. 2003). […] Annealed oligos were subcloned into the pSUPER vector, kindly provided by Dr. R. Bemard (Brummelkamp, Bemards et al. 2002), under the control of the RNA polymerase Ill H1 gene promoter. siRNA expression constructs were transiently transfected MTE 4-14 transfectants, and cell growth was measured. siRNA-targeted transcript levels were quantified by real-time PCR. […]"}, "[3]": {"system": "MTE 4-14 cells", "experiment": "In vitro cell growth of MTE 4-14 transfectants after siRNA-mediated inhibition", "assay_type": "cell-based, murine", "procedure": "C. In vitro growth curves of MTE 4-14 cells transfected with the empty vector, wtTrop-2 or R87A-T88A Trop-2 upon ADAM10 (upper graphs, black,), MMP9 (lower graphs, black,) or control (human CD133, gray), siRNA-mediated inhibition. Bars: SEM. The p value for the only significant difference (ANOVA analysis) is indicated. Stars indicate post-hoc Bonferroni's t test p values (*≤0.05, ***≤0.001).\nCell transfectants were seeded at 1.5-3.0×10^3 cells/well in 96-well plates (five replica wells per data point). Cell numbers were quantified by staining with crystal violet (Orsulic, Li et al. 2002).\nCell numbers were normalized against a standard reference curve of two-fold serially diluted cell samples.\nas §1"}}}
{"molecule": "Sacituzumab govitecan-hziy", "values": [{"measurement": "efficacy in patients", "setting": "[1]", "value": "effective in patients with metastatic triple-negative breast cancer (TNBC)"}]}
{"molecule": "CNC(=O)[C@H](Cc1c[nH]c2ccccc12)NC(=O)[C@@H](CC(=O)NO)CC(C)C", "note": "[GM6001]", "values": [{"measurement": "concentration found effective (up to)", "setting": "[2]", "value": "up to 50 μM"}]}
{"molecule": "CNC(=O)[C@@H](NC(=O)[C@H](CCCc1ccccc1)[C@H](C)N(O)C=O)C(C)(C)C", "note": "[G1254023X]", "values": [{"measurement": "minimum concentration found to be effective in inhibiting Trop-2 cleavage", "setting": "[2]; concentration used on cells, GM6001 for 24 hours, G1254023X two doses every 24 hours for 48 hours", "value": 10, "unit": "µM"}, {"measurement": "concentration found effective (up to)", "setting": "[2]", "value": "up to 20 μM"}]}
{"molecule": "siRNAs targeting MMP9: control siRNA targeting murine MMP9 (NM_013599, nt 1780-1798), SEQ ID NO: 59-60 (nucleic acid, listed as Mus musculus) sense: GATCCCCCCGCAGACCAAGAGGGTTTTTCAAGAGAAAACCCTCTTGGTCTGCGGTTTTTGGAAA antisense: AGCTTTTCCAAAAACCGCAGACCAAGAGGGTTTTCTCTTGAAAAACCCTCTTGGTCTGCGGGGG", "values": [{"measurement": "effect on cell proliferation", "setting": "[3]; control siRNA, MTE 4-14 transfectants", "value": "no effect on cell proliferation"}]}
{"molecule": "ADAM10 siRNA: siRNA targeting murine ADAM10 (NM_007399.3, nt 292-309), SEQ ID NO: 57-58, in pSUPER vector (nucleic acid, listed as Mus musculus) sense: GATCCCCAGACATTATGAAGGATTATTTCAAGAGAATAATCCTTCATAATGTCTTTTTTGGAAA antisense: AGCTTTTCCAAAAAAGACATTATGAAGGATTATTCTCTTGAAATAATCCTTCATAATGTCTGGG", "values": [{"measurement": "effect on growth of R87A-T88A or empty vector transfectants", "setting": "[3]; MTE 4-14 cells transfected with R87A-T88A Trop-2 or empty vector", "value": "no effect"}, {"measurement": "effect on Trop-2 dependent growth in wtTrop-2 transfectants", "setting": "[3]; MTE 4-14 cells transfected with wtTrop-2, in vitro proliferation", "value": "overrides Trop-2 dependent growth stimulus"}, {"measurement": "ADAM10 band in WB after siRNA treatment", "setting": "[2]; MTE 4-14/Trop-2 transfectants", "value": "disappearance of the corresponding band"}]}
